Reference: patent publication EP4603105A1, “PHARMACEUTICAL COMPOSITION CONTAINING CYCLIC COMPOUND HAVING SELECTIVE KRAS INHIBITORY EFFECT AGAINST HRAS AND NRAS” (CHUGAI SEIYAKU KABUSHIKI KAISHA, priority 2022, dated 2024)
Like-named read-outs stand apart in the source and are kept apart here. *1 amine or outer side, *2 acyl side, *3 side chain or, on linkers, in order; H or OH if unused. Where a SMILES comes first, the peptide text is derived from it. Bridges are numbered along the chain shown (N, C = ends). [ ]: non-standard residue; d: D form. The star is where a group is joined. hPhe(3,5-F2-4-CF3) = N[C@@H](CCc1cc(F)c(C(F)(F)F)c(F)c1)C(=O)O; hPhe(3-Cl-4-CF3) = N[C@@H](CCc1ccc(C(F)(F)F)c(Cl)c1)C(=O)O; X42 = Cc1ccc(C[C@@H](C(=O)[*:2])N(CCC(F)(F)F)[*:1])cc1; NPrPhe(4-CF3) = CCCN[C@@H](Cc1ccc(C(F)(F)F)cc1)C(=O)O; NMePhe(4-Me) = CN[C@@H](Cc1ccc(C)cc1)C(=O)O; NMeGly(cPent) = CN[C@H](C(=O)O)C1CCCC1; Pro(4,4-F2) = O=C(O)[C@@H]1CC(F)(F)CN1; NMeD = CN[C@@H](CC(=O)O)C(=O)O; NMeL = CN[C@@H](CC(C)C)C(=O)O; Iva = CC[C@](C)(N)C(=O)O; Morpholide = C1CN(*)CCO1; NMeA = CN[C@@H](C)C(=O)O; Ac5c = NC1(C(=O)O)CCCC1; Aze = O=C(O)[C@@H]1CCN1; Ac4c = NC1(C(=O)O)CCC1; NEtG = CCNCC(=O)O; Sar = CNCC(=O)O

Assays:
[1] = target: GDP-bound NRAS wild-type protein (Homo sapiens, UniProt P01111); experiment: Binding to NRAS by surface plasmon resonance (SPR), KD and KD ratio to KRAS
How it was run: (§1)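 GDP-loaded biotinylated Avi-tag RAS proteins (E. coli-expressed) captured on a Biotin CAPture chip at ~100–300 RU; single-cycle kinetics at 30°C, 100 µL/min, 75 s injections of rising compound concentrations. HBS pH 7.4 running buffer with 1 mM DTT, 10 mM MgCl2, 10 µM GDP, 4% DMSO. KD from 1:1 binding fit.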

[2] = tested on: human lung cancer strain NCI-H441; format: cell-based
How it was run: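 Readout: […] after the ATP-based reagent. Compound: serial dilutions in dimethyl sulfoxide.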

HRAS wild-type protein = HRAS wild-type protein (Homo sapiens, UniProt P01112); experiment: Binding to HRAS by surface plasmon resonance (SPR), KD and KD ratio to KRAS
How it was run: as §1

[3] = ratio of KD for GDP-bound NRAS wild-type protein to KD for KRAS
[4] = ratio of KD for HRAS wild-type protein to KD for KRAS
[5] = ratio of the KD value with respect to GDP-bound NRAS wild-type protein to the KD value with respect to KRAS
[6] = ratio of the KD value with respect to HRAS wild-type protein to the KD value with respect to KRAS
[7] = ratio of KD value for GDP-bound NRAS wild-type protein to KD value for KRAS (SPR)
[8] = ratio of KD value for HRAS wild-type protein to KD value for KRAS (SPR)

Chain of HRAS wild-type protein (P01112 whole entry): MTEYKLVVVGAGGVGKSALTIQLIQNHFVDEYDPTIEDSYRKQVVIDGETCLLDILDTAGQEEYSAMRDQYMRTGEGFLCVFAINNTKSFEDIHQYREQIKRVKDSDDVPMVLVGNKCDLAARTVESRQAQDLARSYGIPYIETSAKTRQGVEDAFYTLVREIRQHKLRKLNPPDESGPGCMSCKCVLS
Chain of GDP-bound NRAS wild-type protein (P01111 whole entry): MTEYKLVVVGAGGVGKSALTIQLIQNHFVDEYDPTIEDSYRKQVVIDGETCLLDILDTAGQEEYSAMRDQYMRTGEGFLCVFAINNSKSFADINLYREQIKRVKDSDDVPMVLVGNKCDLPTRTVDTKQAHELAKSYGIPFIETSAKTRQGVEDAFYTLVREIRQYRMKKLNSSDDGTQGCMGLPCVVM

SMILES	NRAS /KRAS [1, 3]	IC50 [2]	HRAS /KRAS (HRAS wild-type protein; [4])	NRAS /KRAS [1, 5]	HRAS /KRAS (HRAS wild-type protein; [6])	NRAS /KRAS [1, 7]	HRAS /KRAS (HRAS wild-type protein; [8])	IC50 ([2]; NCI-H441 cells, 4 days, CellTiter-Glo, read-out: NCl-H441 IC50)
CCO[C@@H]1C[C@H]2C(=O)NC3(CCC3)C(=O)N(C)[C@@H](C3CCCC3)C(=O)N(C)[C@H](C(=O)N(C)C)CC(=O)N(C)[C@@H](CC)C(=O)N[C@@H]([C@@H](C)CC)C(=O)N(C)CC(=O)N(C)[C@H]3CCCCN(C3=O)[C@@H](Cc3ccc(C(F)(F)F)cc3)C(=O)N(C)CC(=O)N[C@@H](CCc3ccc(C(F)(F)F)c(C)c3)C(=O)N2C1 [PP0882]	C (A compound having a KD ratio of 0.1 or more and less than 3 is denoted as C)	7.1 nM	B (a compound having 3 or more and less than 10 is denoted as B)	–	–	–	–	–
CCO[C@@H]1C[C@H]2C(=O)NC3(CC(C)(C)C3)C(=O)N(C)[C@@H](C3CCCC3)C(=O)N(C)[C@H](C(=O)N(C)CC)CC(=O)N(C)[C@@H](C(C)C)C(=O)N[C@@H]([C@@H](C)CC)C(=O)N(C)CC(=O)N(C)[C@H]3C/C=C\CCN(C3=O)[C@@H](Cc3ccc(C(F)(F)F)cc3)C(=O)N(C)CC(=O)N[C@@H](CCc3ccc(C(F)(F)F)c(OC)c3)C(=O)N2C1 [PP1977]	–	20.2 nM	–	AA (a compound having 20 or more is denoted as AA)	A (a compound having 10 or more and less than 20 is denoted as A)	–	–	–
CCC[C@H]1C(=O)N[C@@H](C2CCCC2)C(=O)N(C)CC(=O)N(C)[C@H]2C/C=C\CCN(C2=O)[C@@H](Cc2ccc(C)cc2)C(=O)N(C)CC(=O)N[C@@H](CCc2ccc(C(F)(F)F)c(OC)c2)C(=O)N2C[C@H](OCC)C[C@H]2C(=O)NC2(CC(C)(C)C2)C(=O)N(C)[C@@H](C2CCCC2)C(=O)N(C)[C@H](C(=O)N(C)C)CC(=O)N1C [PP2992]	AA (a compound having 20 or more is denoted as AA)	7.5 nM	A (a compound having 10 or more and less than 20 is denoted as A)	–	–	–	–	–
CCO[C@@H]1C[C@H]2C(=O)N(C)C3(CCCC3)C(=O)N(C)[C@@H](C3CCCC3)C(=O)N(C)[C@H](C(=O)N(C)C)CC(=O)N(C)[C@@H](C3CC3)C(=O)N[C@@H]([C@@H](C)CC)C(=O)N(C)CC(=O)N(C)[C@H]3C/C=C\CCN(C3=O)[C@@H](Cc3ccc(C)cc3)C(=O)N(C)CC(=O)N[C@@H](CCc3cc(F)c(C(F)(F)F)c(F)c3)C(=O)N2C1 [PP1808]	–	8.8 nM	–	–	–	A (a compound having 10 or more and less than 20 is denoted as A)	B (a compound having 3 or more and less than 10 is denoted as B)	–
CCCN1C(=O)CN(C)C(=O)CN(C)C(=O)[C@H]([C@@H](C)CC)NC(=O)[C@H](CC(C)C)N(C)C(=O)C[C@@H](C(=O)N2CCOCC2)N(C)C(=O)[C@H](C2CCCC2)N(C)C(=O)[C@](C)(CC)NC(=O)[C@@H]2CCCN2C(=O)[C@H](CCc2cc(F)c(C(F)(F)F)c(F)c2)NC(=O)CN(C)C(=O)[C@@H]1Cc1ccc(C(F)(F)F)cc1 [PP0754] ([NMeL]I[Sar][Sar][NPrPhe(4-CF3)][Sar][hPhe(3,5-F2-4-CF3)]P[Iva][NMeGly(cPent)][NMeD]-Morpholide; lactam N-11)	–	40.4 nM	–	B (a compound having 3 or more and less than 10 is denoted as B)	C (A compound having a KD ratio of 0.1 or more and less than 3 is denoted as C)	–	–	–
CC[C@H](C)[C@@H]1NC(=O)[C@H](CC(C)C)N(C)C(=O)C[C@@H](C(=O)N2CCOCC2)N(C)C(=O)[C@H](C2CCCC2)N(C)C(=O)C2(CCCC2)NC(=O)[C@@H]2CCCN2C(=O)[C@H](CCc2ccc(C(F)(F)F)c(Cl)c2)NC(=O)CN(C)C(=O)[C@H](Cc2ccc(C)cc2)N(C)C(=O)CN(C)C(=O)CN(C)C1=O [PP0018] ([NMeL]I[Sar][Sar][NMePhe(4-Me)][Sar][hPhe(3-Cl-4-CF3)]P[Ac5c][NMeGly(cPent)][NMeD]-Morpholide; lactam N-11)	C (A compound having a KD ratio of 0.1 or more and less than 3 is denoted as C)	7 nM	C (A compound having a KD ratio of 0.1 or more and less than 3 is denoted as C)	–	–	–	–	–
CC[C@H](C)[C@@H]1NC(=O)[C@H](CC)N(C)C(=O)C[C@@H](C(=O)N(C)C)N(CC)C(=O)[C@H](C2CCCC2)N(C)C(=O)C2(CCC2)NC(=O)[C@@H]2CCN2C(=O)[C@H](CCc2cc(F)c(C(F)(F)F)c(F)c2)NC(=O)CN(C)C(=O)[C@H](Cc2ccc(C(F)(F)F)cc2)N2CCCC[C@@H](C2=O)N(C)C(=O)CN(C)C1=O [PP0660]	–	131 nM	–	B (a compound having 3 or more and less than 10 is denoted as B)	B (a compound having 3 or more and less than 10 is denoted as B)	–	–	–
CCO[C@@H]1C[C@H]2C(=O)NC3(CCCC3)C(=O)N(C)[C@@H](C3CCCC3)C(=O)N(C)[C@H](C(=O)N(C)CC)CC(=O)N(C)[C@@H](CC(C)C)C(=O)N[C@@H]([C@@H](C)CC)C(=O)N(C)CC(=O)N(C)[C@H]3C/C=C\CCN(C3=O)[C@@H](Cc3ccc(C(F)(F)F)cc3)C(=O)N(C)CC(=O)N[C@@H](CCc3cc(F)c(C(F)(F)F)c(F)c3)C(=O)N2C1 [PP1574]	–	6.5 nM	–	–	–	A (a compound having 10 or more and less than 20 is denoted as A)	A (a compound having 10 or more and less than 20 is denoted as A)	–
CC[C@H](C)[C@@H]1NC(=O)[C@H](CC(C)C)N(C)C(=O)C[C@@H](C(=O)N2CCOCC2)N(C)C(=O)[C@H](C2CCCC2)N(C)C(=O)C2(CCCC2)NC(=O)[C@@H]2CCCN2C(=O)[C@H](CCc2ccc(C(F)(F)F)c(Cl)c2)NC(=O)CN(C)C(=O)[C@H](Cc2ccc(C)cc2)N(CCC(F)(F)F)C(=O)[C@@H]2CCN2C(=O)[C@H](C)N(C)C1=O [PP0091] ([NMeL]I[NMeA][Aze][X42][Sar][hPhe(3-Cl-4-CF3)]P[Ac5c][NMeGly(cPent)][NMeD]-Morpholide; lactam N-11)	C (A compound having a KD ratio of 0.1 or more and less than 3 is denoted as C)	4.1 nM	B (a compound having 3 or more and less than 10 is denoted as B)	–	–	–	–	–
CCCOC[C@H]1C(=O)N[C@@H]([C@@H](C)CC)C(=O)N2CCC[C@H]2C(=O)N(C)[C@H]2C/C=C\CCN(C2=O)[C@@H](Cc2ccc(C)cc2)C(=O)N(C)CC(=O)N[C@@H](CCc2ccc(C(F)(F)F)c(OC)c2)C(=O)N2C[C@H](OCC)C[C@H]2C(=O)N(C)C2(CCC2)C(=O)N(C)[C@@H](C(CC)CC)C(=O)N(C)[C@H](C(=O)N(C)C)CC(=O)N1C [PP2331]	–	11.8 nM	–	AA (a compound having 20 or more is denoted as AA)	A (a compound having 10 or more and less than 20 is denoted as A)	–	–	–
CCCN1C(=O)CN(C)C(=O)CN(C)C(=O)[C@H]([C@@H](C)CC)NC(=O)[C@H](CC(C)C)N(C)C(=O)C[C@@H](C(=O)N2CCOCC2)N(C)C(=O)[C@H](C2CCCC2)N(C)C(=O)C2(CCC2)NC(=O)[C@H](C)N(C)C(=O)[C@H](CCc2ccc(C(F)(F)F)c(Cl)c2)NC(=O)CN(C)C(=O)[C@@H]1Cc1ccc(C(F)(F)F)cc1 [PP1916] ([NMeL]I[Sar][Sar][NPrPhe(4-CF3)][Sar][hPhe(3-Cl-4-CF3)][NMeA][Ac4c][NMeGly(cPent)][NMeD]-Morpholide; lactam N-11)	–	16.8 nM	–	B (a compound having 3 or more and less than 10 is denoted as B)	C (A compound having a KD ratio of 0.1 or more and less than 3 is denoted as C)	–	–	–
CCCN1C(=O)CN(C)C(=O)CN(CC)C(=O)[C@H]([C@@H](C)CC)NC(=O)[C@H](CC(C)C)N(C)C(=O)C[C@@H](C(=O)N2CCOCC2)N(C)C(=O)[C@H](C2CCCC2)N(C)C(=O)C2(CCC2)NC(=O)[C@@H]2CC(F)(F)CN2C(=O)[C@H](CCc2ccc(C(F)(F)F)c(Cl)c2)NC(=O)CN(C)C(=O)[C@@H]1Cc1ccc(C(F)(F)F)cc1 [PP0400] ([NMeL]I[NEtG][Sar][NPrPhe(4-CF3)][Sar][hPhe(3-Cl-4-CF3)][Pro(4,4-F2)][Ac4c][NMeGly(cPent)][NMeD]-Morpholide; lactam N-11)	–	7.8 nM	–	B (a compound having 3 or more and less than 10 is denoted as B)	B (a compound having 3 or more and less than 10 is denoted as B)	–	–	–
CCO[C@@H]1C[C@H]2C(=O)NC3(CC(C)(C)C3)C(=O)N(C)[C@@H](C3CCCC3)C(=O)N(C)[C@H](C(=O)N(C)C)CC(=O)N(C)[C@@H](CC(C)C)C(=O)N[C@@H]([C@@H](C)CC)C(=O)N(C)CC(=O)N(C)[C@H]3C/C=C\CCN(C3=O)[C@@H](Cc3ccc(C)c(F)c3)C(=O)N(C)CC(=O)N[C@@H](CCc3ccc(C(F)(F)F)c(OC)c3)C(=O)N2C1 [PP2689]	A (a compound having 10 or more and less than 20 is denoted as A)	–	B (a compound having 3 or more and less than 10 is denoted as B)	–	–	–	–	6.2 nM
CCCOC[C@H]1C(=O)N[C@@H]([C@@H](C)CC)C(=O)N(C)CC(=O)N(C)[C@H]2C/C=C\CCN(C2=O)[C@@H](Cc2ccc(C(F)(F)F)cc2)C(=O)N(C)CC(=O)N[C@@H](CCc2ccc(C(F)(F)F)c(Cl)c2)C(=O)N2C[C@H](OCC)C[C@H]2C(=O)NC2(CCC2)C(=O)N(C)[C@@H](C2CCCC2)C(=O)N(C)[C@H](C(=O)N(C)CCC)CC(=O)N1C [PP2831]	A (a compound having 10 or more and less than 20 is denoted as A)	14.1 nM	A (a compound having 10 or more and less than 20 is denoted as A)	–	–	–	–	–
